According to ChEMBL document CHEMBL1137709, “Enhanced activity of fluorinated quaternary ammonium surfactants against Pseudomonas aeruginosa” (Eur J Med Chem, 2009):

Experiments:
Pseudomonas aeruginosa = experiment: Antibacterial activity against Pseudomonas aeruginosa CIP A22 after 24 hrs; format: functional; conditions: CIP A22, 24 h
[1] = Critical micelle concentration in aqueous potassium hydroxide assessed as breakpoint of conductivity by conductimeter; format: physicochemical; conditions: buffer

| MIC (Pseudomonas aeruginosa) [µM] | CMC [1] [mM] | solubility [1] | SMILES |
| --- | --- | --- | --- |
| 5.94 | 0.758 | – | C[N+](C)(CCCC[N+](C)(C)CC(=O)NCCC(F)(F)C(F)(F)C(F)(F)C(F)(F)C(F)(F)C(F)(F)F)CC(=O)NCCC(F)(F)C(F)(F)C(F)(F)C(F)(F)C(F)(F)C(F)(F)F.[Br-].[Br-] |
| 2.83 | 0.296 | – | C[N+](C)(CCCCCCCCCC[N+](C)(C)CC(=O)NCCC(F)(F)C(F)(F)C(F)(F)C(F)(F)C(F)(F)C(F)(F)F)CC(=O)NCCC(F)(F)C(F)(F)C(F)(F)C(F)(F)C(F)(F)C(F)(F)F.[Br-].[Br-] |
| 4.59 | – | Insoluble | C[N+](C)(CCCC[N+](C)(C)CSCCC(F)(F)C(F)(F)C(F)(F)C(F)(F)C(F)(F)C(F)(F)F)CSCCC(F)(F)C(F)(F)C(F)(F)C(F)(F)C(F)(F)C(F)(F)F.[Br-].[Br-] |
| 9.25 | 0.541 | – | C[N+](C)(CC(=O)NCCC(F)(F)C(F)(F)C(F)(F)C(F)(F)C(F)(F)C(F)(F)F)CC(O)C[N+](C)(C)CC(=O)NCCC(F)(F)C(F)(F)C(F)(F)C(F)(F)C(F)(F)C(F)(F)F.[Br-].[Br-] |
| 4.95 | 0.451 | – | C[N+](C)(CCSSCC[N+](C)(C)CC(=O)NCCC(F)(F)C(F)(F)C(F)(F)C(F)(F)C(F)(F)C(F)(F)F)CC(=O)NCCC(F)(F)C(F)(F)C(F)(F)C(F)(F)C(F)(F)C(F)(F)F.[Br-].[Br-] |
| 1.88 | 0.547 | – | C[N+](C)(CCCC[N+](C)(C)CCNC(=O)CCC(F)(F)C(F)(F)C(F)(F)C(F)(F)C(F)(F)C(F)(F)F)CCNC(=O)CCC(F)(F)C(F)(F)C(F)(F)C(F)(F)C(F)(F)C(F)(F)F.[Br-].[Br-] |
| 5.38 | 0.523 | – | C[N+](C)(CCCC[N+](C)(C)CCNC(=O)NCCC(F)(F)C(F)(F)C(F)(F)C(F)(F)C(F)(F)C(F)(F)F)CCNC(=O)NCCC(F)(F)C(F)(F)C(F)(F)C(F)(F)C(F)(F)C(F)(F)F.[Br-].[Br-] |
| 3.69 | 0.54 | – | C[N+](C)(CCCC[N+](C)(C)CCOC(=O)NCCC(F)(F)C(F)(F)C(F)(F)C(F)(F)C(F)(F)C(F)(F)F)CCOC(=O)NCCC(F)(F)C(F)(F)C(F)(F)C(F)(F)C(F)(F)C(F)(F)F.[Br-].[Br-] |
| 2.76 | 0.269 | – | C[N+](C)(CCCCCCCCCCCC[N+](C)(C)CC(=O)NCCC(F)(F)C(F)(F)C(F)(F)C(F)(F)C(F)(F)C(F)(F)F)CC(=O)NCCC(F)(F)C(F)(F)C(F)(F)C(F)(F)C(F)(F)C(F)(F)F.[Br-].[Br-] |
| 5.8 | 0.591 | – | C[N+](C)(CC[N+](C)(C)CC(=O)NCCC(F)(F)C(F)(F)C(F)(F)C(F)(F)C(F)(F)C(F)(F)F)CC(=O)NCCC(F)(F)C(F)(F)C(F)(F)C(F)(F)C(F)(F)C(F)(F)F.[Br-].[Br-] |
| 51.2 | – | – | CCCCCCCCNC(=O)C[N+](C)(C)CCCC[N+](C)(C)CC(=O)NCCCCCCCC |
| 2.89 | 0.361 | – | C[N+](C)(CCCCCCCC[N+](C)(C)CC(=O)NCCC(F)(F)C(F)(F)C(F)(F)C(F)(F)C(F)(F)C(F)(F)F)CC(=O)NCCC(F)(F)C(F)(F)C(F)(F)C(F)(F)C(F)(F)C(F)(F)F.[Br-].[Br-] |
| 3.67 | 0.559 | – | C[N+](C)(C/C=C/C[N+](C)(C)CC(=O)NCCC(F)(F)C(F)(F)C(F)(F)C(F)(F)C(F)(F)C(F)(F)F)CC(=O)NCCC(F)(F)C(F)(F)C(F)(F)C(F)(F)C(F)(F)C(F)(F)F.[Br-].[Br-] |
| 5.19 | 0.546 | – | C[N+](C)(CCC[N+](C)(C)CC(=O)NCCC(F)(F)C(F)(F)C(F)(F)C(F)(F)C(F)(F)C(F)(F)F)CC(=O)NCCC(F)(F)C(F)(F)C(F)(F)C(F)(F)C(F)(F)C(F)(F)F.[Br-].[Br-] |
| 5.52 | 0.588 | – | C[N+](C)(CCCCCC[N+](C)(C)CC(=O)NCCC(F)(F)C(F)(F)C(F)(F)C(F)(F)C(F)(F)C(F)(F)F)CC(=O)NCCC(F)(F)C(F)(F)C(F)(F)C(F)(F)C(F)(F)C(F)(F)F.[Br-].[Br-] |
| 5.82 | 0.466 | – | O=C(C[N+]12CC[N+](CC(=O)NCCC(F)(F)C(F)(F)C(F)(F)C(F)(F)C(F)(F)C(F)(F)F)(CC1)CC2)NCCC(F)(F)C(F)(F)C(F)(F)C(F)(F)C(F)(F)C(F)(F)F.[Br-].[Br-] |
| 7.31 | 2.39 | – | C[N+](C)(CCCC[N+](C)(C)CCC(F)(F)C(F)(F)C(F)(F)C(F)(F)C(F)(F)C(F)(F)F)CCC(F)(F)C(F)(F)C(F)(F)C(F)(F)C(F)(F)C(F)(F)F.[Br-].[Br-] |

| SMILES | MIC (Pseudomonas aeruginosa) [µM] | CMC [1] [mM] | solubility [1] |
| --- | --- | --- | --- |
| CCCCCCCCCCCC[N+](C)(C)CCOc1ccccc1 [DOMIPHEN BROMIDE] | 40.8 | – | – |
